ChEMBL document CHEMBL1201862, “PubChem BioAssay data set” (2004)
The source made the active and inactive calls.

Experiments:
[1] = Counterscreen for […] of the human trace amine associated receptor 1 (TAAR1): Fluorescence-based cell-based high throughput dose response assay to identify nonselective Ga16 agonists.; type: functional
[2] = biological target: T1, Trace amine-associated receptor 1 (Homo sapiens, UniProt Q96RJ0); assay: Fluorescence-based cell-based high throughput dose response assay to identify antagonists of the human trace amine associated receptor 1 (TAAR1).; type: functional
T1 sequence (Q96RJ0 whole entry): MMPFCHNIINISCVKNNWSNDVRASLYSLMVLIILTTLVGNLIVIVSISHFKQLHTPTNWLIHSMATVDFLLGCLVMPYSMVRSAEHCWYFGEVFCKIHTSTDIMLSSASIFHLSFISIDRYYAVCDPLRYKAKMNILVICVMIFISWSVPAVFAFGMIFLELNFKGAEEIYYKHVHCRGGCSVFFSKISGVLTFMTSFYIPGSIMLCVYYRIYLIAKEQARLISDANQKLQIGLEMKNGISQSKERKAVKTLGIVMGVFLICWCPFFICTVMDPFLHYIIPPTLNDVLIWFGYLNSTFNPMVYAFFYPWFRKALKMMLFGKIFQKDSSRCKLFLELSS

[3] = biological target: T1, Trace amine-associated receptor 1; assay: Counterscreen for antagonists of the human trace amine associated receptor 1 (hTAAR1): Fluorescence-based cell-based high throughput dose response assay to identify TAAR1 Agonists.; type: functional
[4] = Counterscreen for antagonists of the human trace amine associated receptor 1 (hTAAR1): Fluorescence-based cell-based high throughput dose response assay to identify nonselective Ga16 antagonists.; type: functional
[5] = HGIII-sPLA2 enzyme inhibition potency – biochemical, QFRET, IC50, dose response (AID 743457);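 note: green fluorescence rise as the enzyme cleaves BODIPY PC-A2 in liposomes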
[6] = mouse fibroblast viability loss – cell-based, cherry-pick samples, set 2, cytotoxicity control for T. cruzi growth inhibitor project, dose response (AID 651817); type: functional; settings: NIH3T3
[7] = intracellular Trypanosoma cruzi inhibitors in host cells – cell-based, plate reader, cherry-pick samples, set 3, dose response (AID 651818); type: functional;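 note: compounds incubated with infected cells for about four days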
A549 = assay: viability loss in A549 cells – cell-based, plate reader, cherry-pick samples, cytotoxicity control, dose response (AID 687028); type: functional; settings: Homo sapiens
[8] = general mammalian cell viability loss – inhibitor set, cherry-pick, set 2, cytotoxicity control for miR-122 modulator project, dose response (AID 720697); type: functional, cell-based
[9] = HeLa cell viability loss – 24 h, dry powder, set 2, cytotoxicity control, dose response (AID 651774); type: functional, cell-based
[10] = rescue of ΔF508 CFTR function, airway epithelium – human bronchial epithelial cells, plate reader, cherry-pick, two tests, dose response (AID 743267); type: functional, cell-based
[11] = biological target: Endoplasmic reticulum aminopeptidase 1 (Homo sapiens, UniProt Q9NZ08); assay: inhibition of human ERAP1 enzyme activity – biochemical, cherry-pick, set 2, plate reader, dose response (AID 743314)
[12] = biological target: Voltage-gated inwardly rectifying potassium channel KCNH2 (Homo sapiens, UniProt Q12809); assay: concentration-dependent hERG rescue from blockers – cell-based, thallium flux, dose response (AID 2121); type: ADME
Streptokinase A = biological target: T2, Streptokinase A (Streptococcus pyogenes serotype M1, UniProt P10520); assay: viability-normalized secreted streptokinase activity reduction – plasminogen activation absorbance, OD405, dose response (AID 1914); type: functional, Streptococcus pyogenes M1 GAS;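 note: secreted streptokinase activity via plasminogen activation per viability signal from cell pellet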
T2 sequence (P10520 whole entry): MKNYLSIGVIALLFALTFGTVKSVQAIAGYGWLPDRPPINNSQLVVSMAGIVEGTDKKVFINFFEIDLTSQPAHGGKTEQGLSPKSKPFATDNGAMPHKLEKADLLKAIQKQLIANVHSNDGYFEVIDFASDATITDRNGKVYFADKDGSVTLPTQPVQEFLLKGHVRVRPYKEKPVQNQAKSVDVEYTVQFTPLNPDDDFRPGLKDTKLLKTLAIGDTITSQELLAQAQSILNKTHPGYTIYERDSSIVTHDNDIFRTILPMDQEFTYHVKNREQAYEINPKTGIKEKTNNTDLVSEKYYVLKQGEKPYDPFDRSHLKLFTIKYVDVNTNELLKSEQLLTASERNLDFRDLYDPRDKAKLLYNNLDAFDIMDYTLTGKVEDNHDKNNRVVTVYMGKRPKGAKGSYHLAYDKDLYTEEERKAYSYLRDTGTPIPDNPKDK

[13] = biological target: Fructose-bisphosphate aldolase (Mycobacterium tuberculosis, UniProt P9WQA3); assay: Fluorescence-based biochemical high throughput dose response assay for inhibitors of the fructose-bisphosphate aldolase (FBA) of M. tuberculosis.; type: functional
[14] = system: Streptococcus sp. 'group A'; assay: Streptococcus pyogenes SK(-)GAS viability under kanamycin – luminescence, BacTiterGlo, confirmation, counter-screen for streptokinase expression inhibitor project, dose response (AID 1900); type: functional, organism-based
Streptococcus = assay: GAS UMAA2166 growth inhibition – luminescence, BacTiterGlo, counter-screen for streptokinase expression inhibitor project, dose response (AID 1915); type: functional, organism-based; settings: read-out: EC50;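 note: potency for reduction of bacterial viability or growth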

Chain of Endoplasmic reticulum aminopeptidase 1 (Q9NZ08 whole entry): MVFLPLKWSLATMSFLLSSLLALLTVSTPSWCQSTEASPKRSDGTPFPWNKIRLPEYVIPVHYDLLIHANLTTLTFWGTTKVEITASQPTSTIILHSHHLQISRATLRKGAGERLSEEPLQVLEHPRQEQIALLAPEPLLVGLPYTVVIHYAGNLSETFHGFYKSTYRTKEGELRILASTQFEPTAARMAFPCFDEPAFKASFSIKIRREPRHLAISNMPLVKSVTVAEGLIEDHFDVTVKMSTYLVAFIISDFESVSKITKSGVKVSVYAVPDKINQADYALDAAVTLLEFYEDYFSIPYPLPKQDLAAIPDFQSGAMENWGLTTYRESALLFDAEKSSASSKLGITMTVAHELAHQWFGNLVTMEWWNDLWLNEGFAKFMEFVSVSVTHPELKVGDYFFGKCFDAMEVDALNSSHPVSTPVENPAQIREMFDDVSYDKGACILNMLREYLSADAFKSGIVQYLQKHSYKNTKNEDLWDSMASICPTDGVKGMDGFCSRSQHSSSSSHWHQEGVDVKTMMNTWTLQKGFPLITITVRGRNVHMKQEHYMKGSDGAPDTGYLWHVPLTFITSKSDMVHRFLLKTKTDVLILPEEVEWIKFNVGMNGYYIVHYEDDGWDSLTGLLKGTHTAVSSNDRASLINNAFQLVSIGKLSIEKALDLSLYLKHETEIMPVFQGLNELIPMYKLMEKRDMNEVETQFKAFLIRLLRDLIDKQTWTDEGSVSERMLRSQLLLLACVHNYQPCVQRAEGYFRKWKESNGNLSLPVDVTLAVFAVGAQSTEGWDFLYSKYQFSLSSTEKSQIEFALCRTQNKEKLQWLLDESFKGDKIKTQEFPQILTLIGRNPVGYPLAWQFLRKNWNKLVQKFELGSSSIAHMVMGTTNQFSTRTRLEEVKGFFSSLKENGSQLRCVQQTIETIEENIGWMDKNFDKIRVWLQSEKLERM
Chain of Voltage-gated inwardly rectifying potassium channel KCNH2 (Q12809 whole entry): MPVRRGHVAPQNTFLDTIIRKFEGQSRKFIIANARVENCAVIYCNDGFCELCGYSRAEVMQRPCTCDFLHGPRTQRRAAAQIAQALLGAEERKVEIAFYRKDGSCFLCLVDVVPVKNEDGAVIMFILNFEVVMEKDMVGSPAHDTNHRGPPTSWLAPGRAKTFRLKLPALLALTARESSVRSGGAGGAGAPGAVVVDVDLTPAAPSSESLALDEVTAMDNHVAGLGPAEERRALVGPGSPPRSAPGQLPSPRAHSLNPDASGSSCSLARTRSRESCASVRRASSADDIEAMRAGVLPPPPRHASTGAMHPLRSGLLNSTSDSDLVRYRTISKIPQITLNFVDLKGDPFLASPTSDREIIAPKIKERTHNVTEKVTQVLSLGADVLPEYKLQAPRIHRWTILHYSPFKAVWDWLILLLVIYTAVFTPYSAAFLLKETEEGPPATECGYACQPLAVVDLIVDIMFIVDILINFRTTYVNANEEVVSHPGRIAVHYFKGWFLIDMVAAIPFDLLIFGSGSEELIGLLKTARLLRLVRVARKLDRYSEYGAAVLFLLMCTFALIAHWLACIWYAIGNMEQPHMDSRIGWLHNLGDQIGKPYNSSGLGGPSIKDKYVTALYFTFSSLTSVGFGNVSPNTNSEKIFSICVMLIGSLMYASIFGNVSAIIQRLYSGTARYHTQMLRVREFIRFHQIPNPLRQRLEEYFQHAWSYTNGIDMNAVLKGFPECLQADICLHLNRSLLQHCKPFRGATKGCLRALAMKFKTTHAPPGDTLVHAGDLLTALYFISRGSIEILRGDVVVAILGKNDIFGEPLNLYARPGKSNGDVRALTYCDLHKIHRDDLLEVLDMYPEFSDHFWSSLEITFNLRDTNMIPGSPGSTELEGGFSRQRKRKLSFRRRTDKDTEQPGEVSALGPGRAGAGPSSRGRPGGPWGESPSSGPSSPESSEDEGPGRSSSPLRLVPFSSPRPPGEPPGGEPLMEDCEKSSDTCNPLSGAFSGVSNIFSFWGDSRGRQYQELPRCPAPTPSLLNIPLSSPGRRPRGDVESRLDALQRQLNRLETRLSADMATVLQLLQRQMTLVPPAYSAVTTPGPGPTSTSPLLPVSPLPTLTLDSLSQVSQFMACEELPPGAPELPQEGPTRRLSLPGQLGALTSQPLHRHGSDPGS
Chain of Fructose-bisphosphate aldolase (P9WQA3 whole entry): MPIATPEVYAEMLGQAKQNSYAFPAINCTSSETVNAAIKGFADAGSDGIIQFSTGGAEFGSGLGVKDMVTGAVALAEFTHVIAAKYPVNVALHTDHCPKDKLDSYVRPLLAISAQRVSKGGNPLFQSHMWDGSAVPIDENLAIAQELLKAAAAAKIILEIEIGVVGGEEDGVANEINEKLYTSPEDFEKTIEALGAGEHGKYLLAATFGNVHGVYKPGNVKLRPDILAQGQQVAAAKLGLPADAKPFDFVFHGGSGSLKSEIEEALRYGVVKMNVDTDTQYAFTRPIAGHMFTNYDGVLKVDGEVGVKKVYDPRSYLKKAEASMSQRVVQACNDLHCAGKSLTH

For `O=[N+]([O-])c1ccc(-c2c(-c3ccccc3)ncc3cc(F)ccc23)cc1`, the EC50 [1] was > 29.9 µM (inactive), the IC50 [2] was 4.77 µM (active) and the EC50 [3] was > 29.9 µM (inactive). For the same compound, the IC50 [4] was > 29.9 µM (inactive).

In the case of `CCCCn1c(S)nnc1C12CC3CC(CC(C3)C1)C2`, the IC50 [5] is reported as > 122 µM (inactive).

With `Cc1ccc(S(=O)(=O)Nc2ccc3c(c2)CC(=O)N([C@H](C)CO)C[C@@H](C)[C@@H](CN(C)S(=O)(=O)c2ccc(Cl)cc2)O3)cc1` the AC50 [6] was 33.1 µM (active) and the AC50 [7] was 1.96 µM (active).

In the case of `Cc1ccc(NC(=O)c2cc(-c3cc(Cl)ccc3C)[nH]n2)cc1NS(C)(=O)=O`, the AC50 (A549) is reported as 23.8 µM (active).

For `CC(=O)N1[C@H](CN(C(=O)c2ccc(F)cc2)C(C)C)[C@H](c2ccccc2)[C@@H]1CO`, the AC50 [8] was 10.5 µM (active).

In the case of `CCc1ccc(C(=O)Nc2nnnn2CC)cc1`, the AC50 [9] is reported as > 70 µM (inactive).

For `COc1cccc(S(=O)(=O)N2C[C@@H]3N[C@H](C2)[C@@H]3c2ccc(-c3cccc(C)c3)cc2)c1`, the AC50 [10] was 16 µM (active).

With `CN1c2ccc(-c3ccc(C#N)cc3)cc2[C@@H]2[C@@H](CCN2C(=O)CC2CC2)[C@@H]1CO` the AC50 [11] was 19.8 µM (active).

In the case of `Sc1nc(-c2ccccc2)cn1/N=C/c1cccc2ccccc12`, the EC50 [12] is reported as 0.7 µM (active), the EC50 (Streptokinase A) is reported as > 150 µM (not active) and the IC50 [13] is reported as > 9.99 µM (inactive). For the same compound, the EC50 [14] was 89.1 µM (active) and the EC50 (Streptococcus) was > 150 µM (not active).
